The text below walks through data of US20230098667A1, “BENZODIAZEPINE DERIVATIVES, COMPOSITIONS, AND METHODS FOR TREATING COGNITIVE IMPAIRMENT” (priority 2019, published 2023).

Series [1] addresses T1, GABAA receptors α5β3γ2 (GABA α5) (Homo sapiens, UniProt P18507+P31644).
T1 construct: membranes
T1 sequence (P31644 32-462): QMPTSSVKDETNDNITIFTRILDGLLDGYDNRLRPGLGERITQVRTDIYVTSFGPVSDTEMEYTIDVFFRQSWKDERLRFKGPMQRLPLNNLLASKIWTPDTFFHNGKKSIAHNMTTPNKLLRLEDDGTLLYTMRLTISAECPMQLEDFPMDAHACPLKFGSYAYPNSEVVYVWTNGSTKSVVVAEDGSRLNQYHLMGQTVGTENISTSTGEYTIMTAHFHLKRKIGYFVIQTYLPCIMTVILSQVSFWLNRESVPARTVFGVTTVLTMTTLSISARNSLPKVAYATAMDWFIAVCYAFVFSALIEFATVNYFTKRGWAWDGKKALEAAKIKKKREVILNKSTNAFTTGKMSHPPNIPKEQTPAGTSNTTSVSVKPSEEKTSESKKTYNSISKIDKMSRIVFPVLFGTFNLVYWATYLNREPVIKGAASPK
T1 sequence (P28472 26-473 partner): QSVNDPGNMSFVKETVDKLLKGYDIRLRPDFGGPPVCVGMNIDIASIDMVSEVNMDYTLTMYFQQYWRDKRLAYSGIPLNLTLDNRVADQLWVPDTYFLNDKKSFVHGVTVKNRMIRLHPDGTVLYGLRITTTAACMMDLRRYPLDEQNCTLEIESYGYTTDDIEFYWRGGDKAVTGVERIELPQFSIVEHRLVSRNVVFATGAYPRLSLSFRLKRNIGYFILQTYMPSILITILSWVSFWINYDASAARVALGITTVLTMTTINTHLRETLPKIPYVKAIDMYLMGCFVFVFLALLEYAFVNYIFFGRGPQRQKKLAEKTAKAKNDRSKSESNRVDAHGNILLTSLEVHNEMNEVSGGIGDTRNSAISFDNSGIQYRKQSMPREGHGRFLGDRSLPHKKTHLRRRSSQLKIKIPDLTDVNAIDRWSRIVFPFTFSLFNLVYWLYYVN
T1 sequence (P18507 40-467 limits assumed): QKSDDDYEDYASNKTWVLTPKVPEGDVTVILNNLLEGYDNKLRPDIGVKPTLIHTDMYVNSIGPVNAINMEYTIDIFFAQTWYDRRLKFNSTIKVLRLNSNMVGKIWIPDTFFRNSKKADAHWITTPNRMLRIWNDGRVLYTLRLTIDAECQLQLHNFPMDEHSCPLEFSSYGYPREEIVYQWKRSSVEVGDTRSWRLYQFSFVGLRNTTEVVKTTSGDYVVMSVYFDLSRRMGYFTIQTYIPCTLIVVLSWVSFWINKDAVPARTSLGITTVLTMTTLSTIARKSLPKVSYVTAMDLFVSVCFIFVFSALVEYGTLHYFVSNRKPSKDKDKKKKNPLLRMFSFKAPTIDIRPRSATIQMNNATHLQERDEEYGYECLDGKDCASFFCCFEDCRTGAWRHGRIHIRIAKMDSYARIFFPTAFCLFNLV
Kind of series: Binding activity on GABAAR: inhibition of [3H]Ro15-1788 binding, membranes of Ltk cells. Particulars: α5β3γ2 Ltk cell membranes. The method, then:
Tissue culture and Membrane Preparation: The binding was performed on Ltk cells stably expressing GABAA receptors: α1β1γ2, α2β3γ2, α3β3γ2 and α5β3γ2 (provided by Merck Co., NJ, USA). Cells were seeded in 100 mm culture plates in DMEM/F12 medium containing 10% serum and antibiotics in 5% CO2 and allowed to grow for 1-2 days. GABAAR expression was then induced by dexamethasone as follows: 0.5 μM for 1 day for α5 containing and 2 μM for 3 days for α1, α2 and α3 containing GABAARs. After induction, cells were collected by scraping into Dulbecco's Phosphate buffered saline (DPBS, pH 7.4, Invitrogen, Carlsbad, Calif., USA) and centrifuged at 150×g for 10 min. The pellet was washed twice by re-suspension and centrifugation. The cell pellets from at least 5 different preps were combined, suspended in the binding assay buffer (50 mM KH2PO4; 1 mM EDTA; 0.2 M KCl, pH 7.4) and membranes prepared by sonication (3-5 times, 30 sec) using Branson Sonifier 150 (G. Heinmann, Germany). Protein content was determined using BCA assay (Bio-Rad Labs, Reinach, Switzerland) with Bovine Serum Albumin (Sigma Aldrich, St. Louis, Mo., USA) as the standard. Aliquots were prepared and stored at −20° C. for further use in binding assays.
Ligand Binding: Saturation binding curves were obtained by incubating membranes with increasing concentrations (0.01-8 nM) of [^3H]Rol5-1788 (Flumazepil, 75-85 Ci/mmol, PerkinElmer, MA, USA), with nonspecific binding measured in the presence of 10 μM diazepam.
All binding assays were performed for 1 h at 4° C. in assay buffer. The total assay volume was 0.5 ml containing 0.2 mg/ml protein for α5 and 0.4 mg/ml for α1, α2, and α3 containing GABAAR membranes. Incubations were terminated by filtration through GF/B filters using a 24-Cell Harvestor (Brandel, Gaithersburg, Md., USA) followed by 3 washes with ice-cold assay buffer. Filters were transferred to scintillation vials, 5 ml scintillation liquid added, vortex-mixed and kept in dark. Next day, radioactivity was obtained using a scintillation counter (Beckman Coulter, Brea, Calif., USA). All assays were performed in triplicate.
Data Analyses: Saturation and inhibition curves were obtained using GraphPad Prism software (GraphPad Software, Inc., CA, USA).

For another series, the target named is T2, GABAA α5 receptor (Rattus norvegicus, UniProt P19969).
T2 construct: from tissue; host or cells: brain of living Long Evans rats; hippocampus and cerebellum dissected after i.v. dosing
Kind of series: GABAA α5 receptor occupancy with Ro 15-4513 tracer. Particulars: i.v. Format: in vivo, Long Evans rats. From the text:
Food and water were available ad libitum.

The subject of series [2] is aged-impaired (AI) rats. Kind of series: Morris water maze behavioral task. The settings on record: 100 μg ICV. Format: in vivo, rat. As for the experimental part:
The effects of 6,6 dimethyl-3-(3-hydroxypropyl)thio-1-(thiazol-2-yl)-6,7-dihydro-2-benzothiophen-4(5H)-one on the in vivo spatial memory retention of aged-impaired (AI) rats were assessed in a Morris water maze behavioral task. A water maze is a pool surrounded with a novel set of patterns relative to the maze.
Cognitively impaired aged rats were implanted unilaterally with a cannula into the lateral ventricle. Stereotaxic coordinates were 1.0 mm posterior to bregma, 1.5 mm lateral to midline, and 3.5 mm ventral to the skull surface. After about a week of recovery, the rats were pre-trained in a water maze for 2 days (6 trials per day) to locate a submerged escape platform hidden underneath the surface of the pool, in which the escape platform location varied from day to day. No intracerebroventricular (ICV) infusion was given during pre-training.
After pre-training, rats received ICV infusion of either 100 μg 6,6 dimethyl-3-(3-hydroxypropyl)thio-1-(thiazol-2-yl)-6,7-dihydro-2-benzothiophen-4(5H)-one (n=6) in 5 μl DMSO or vehicle DMSO (n=5) 40 min prior to water maze training and testing. Training consisted of 8 trials per day for 2 days where the hidden escape platform remained in the same location. Rats were given 60 seconds to locate the platform with a 60 seconds inter-trial interval. The rats were given a probe test (120 seconds) 24 hr. after the end of training where the escape platform was removed. During the training, there were 4 blocks, where each block had 4 training trials.
During a test trial 24 hr. after training, the escape platform was removed. The search/swim pattern of the rats was used to measure whether the rats remember where the escape platform was located during pre-trial training in order to test for the long-term memory of the rats. In this trial, “target annulus” is a designated area 1.5 times the size of the escape platform around the area where the platform was located during pre-trial training. “Opposite annulus” is a control area of the same size as the size of the target annulus, which is located opposite to the target annulus in the pool. If the rats had good long term memory, they would tend to search in the area surrounding the location where the platform was during the pre-trial training (i.e., the “target” annulus; and not the “opposite” annulus). “Time in annulus” is the amount of time in seconds that the rat spent in the target or opposite annulus area. “Number (#) of crossings” in annulus is the number of times the rat swam across the target or opposite annulus area.

Series [3] relates to aged-impaired (AI) rats. Kind of series: Radial Arm Maze (RAM) behavioral task, four-hour delay. It is filed as in vivo, rat.
Method: The same experiment was repeated using the same vehicle control and doses of ethyl 3-methoxy-7-methyl-9H-benzo[f]imidazo[1,5-a][1,2,4]triazolo[4,3-d][1,4]diazepine-10-carboxylate, where the vehicle control was tested 5 times, the 3 mg/kg dose of ethyl 3-methoxy-7-methyl-9H-benzo[f]imidazo[1,5-a][1,2,4]triazolo[4,3-d][1,4]diazepine-10-carboxylate was tested 4 times, and the other doses of ethyl 3-methoxy-7-methyl-9H-benzo[f]imidazo[1,5-a][1,2,4]triazolo[4,3-d][1,4]diazepine-10-carboxylate were tested twice.
Parametric statistics (paired t-tests) was used to compare the retention test performance of the AI rats in the four-hour delay version of the RAM task in the context of different doses of ethyl 3-methoxy-7-methyl-9H-benzo[f]imidazo[1,5-a][1,2,4]triazolo[4,3-d][1,4]diazepine-10-carboxylate and vehicle control (see FIG. 5).
[4] abbreviates: probe test 24 hr. after training.

Entries after “also recorded” stand apart in the source; their conditions may differ. Some results are limits rather than exact numbers.

T2 sequence (P19969 32-464 limits assumed): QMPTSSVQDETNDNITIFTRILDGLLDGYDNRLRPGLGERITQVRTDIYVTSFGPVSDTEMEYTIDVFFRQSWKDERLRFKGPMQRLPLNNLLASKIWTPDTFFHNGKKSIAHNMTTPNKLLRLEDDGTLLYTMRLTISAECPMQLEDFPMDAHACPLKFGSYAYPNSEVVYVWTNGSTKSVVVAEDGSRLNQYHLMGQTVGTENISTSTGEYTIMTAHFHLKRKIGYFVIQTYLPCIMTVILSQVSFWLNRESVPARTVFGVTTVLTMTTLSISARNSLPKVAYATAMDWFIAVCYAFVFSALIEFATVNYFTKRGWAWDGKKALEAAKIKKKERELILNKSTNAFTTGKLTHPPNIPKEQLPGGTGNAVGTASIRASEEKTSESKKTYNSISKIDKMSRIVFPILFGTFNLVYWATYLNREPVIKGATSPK

For orientation: Ki means the dissociation constant of the complex between target and ligand, obtained from inhibition or displacement. Regarding `COc1ccc2c(c1)-n1nncc1Cc1c(C#Cc3cn(C)nc3OC)ncn1-2` [Compound 735], the Ki in series [1] was less than 0.1 µM.
`COCc1nnc2n1Cc1c(C#Cc3cn(C)nc3OC)ncn1-c1ccc(Cl)cc1-2` [Compound 737]: the Ki in series [1] was less than 0.1 µM.
On the same count and under the same terms, the figure for `COc1ncc(C#Cc2ncn3c2Cc2cnnn2-c2cc(Cl)ccc2-3)cc1F` [Compound 734] is less than 0.1 µM; for `COc1ccc2c(c1)-n1nncc1Cc1c(C#Cc3cnc(OC)c(F)c3)ncn1-2` [Compound 732] it is 0.1 to 1 µM.
Take `CCOC(=O)c1ncn2c1CN(C)C(=O)c1cc(N=[N+]=[N-])ccc1-2` [Ro 15-4513]: on GABAA α5 receptor (tracer 1 μg/kg, after vehicle), the “levels of Ro 15-4513 in cerebellum” value came out at 0.36 ± 0.02 ng/g, the “levels of Ro 15-4513 in hippocampus” value was 1.93 ± 0.05 ng/g and the “levels of Ro 15-4513 in hippocampus compared with cerebellum” value is listed as greater than 5 fold.
For the compound `COCc1nnn2c1Cc1c(C#Cc3cnc(C)n3C)ncn1-c1ccc(Cl)cc1-2` [Compound 740], the Ki in series [1] was less than 0.1 µM.
For `CC1(C)CC(=O)c2c(SCCCO)sc(-c3nccs3)c2C1` [6,6 dimethyl-3-(3-hydroxypropyl)thio-1-(thiazol-2-yl)-6,7-dihydro-2-benzothiophen-4(5H)-one], in the series with aged-impaired (AI) rats [2] (setting [4]), the “number of crossings of target annulus versus opposite annulus” value is on record as “crossed the “target annulus” more often” and the “time in target annulus versus opposite annulus” value is “spent significantly more time in the target annulus”. For the same compound, the “time to find the escape platform (escape latency)” value in the series on aged-impaired (AI) rats [2] (training block 1) is on record as “about 24 seconds”. The “time to find the escape platform (escape latency)” value with aged-impaired (AI) rats [2] (training block 4) is “about 9.6 seconds”.
In series [1], `COCc1nnn2c1Cc1c(C#Cc3cn(C)nc3OC)ncn1-c1ccc(Cl)cc1-2` [Compound 738] returned a Ki of less than 0.1 µM.
In series [1], `COCc1nnc2n1Cc1c(C#Cc3cnc(OC)c(C(F)(F)F)c3)ncn1-c1ccc(OC)cc1-2` [Compound 731] gave a Ki of 0.1 to 1 µM.
Regarding `CCOC(=O)c1ncn2c1Cn1c(C)nnc1-c1cc(OC)ccc1-2` [ethyl 3-methoxy-7-methyl-9H-benzo[f]imidazo[1,5-a][1,2,4]triazolo[4,3-d][1,4]diazepine-10-carboxylate], the “effect on Ro 15-4513 binding in hippocampus and cerebellum” value at GABAA α5 receptor (0.01-10 mg/kg) was “reduced Ro 15-4513 binding in hippocampus, without affecting cerebellum levels of Ro 15-4513; also recorded: blocked the binding of Rol54513 in the hippocampus but did not affect binding of Rol5413 in the cerebellum”. In addition, the “GABAA α5 receptor occupancy” value on GABAA α5 receptor (10 mg/kg) was greater than 90%. Also, the “memory performance relative to vehicle control” value with aged-impaired (AI) rats [3] (3 mg/kg) and with aged-impaired (AI) rats [3] (10 mg/kg) was “significantly improved memory performance” each time.
Consider `COCc1nnc2n1Cc1c(C#Cc3cn(C)nc3OC)ncn1-c1ccc(OC)cc1-2` [Compound 736], for which the Ki in series [1] is less than 0.1 µM.
